Assay results taken from US7468376B2, “Pyrazolopyridine derivates” (Palau Pharma, S.A., priority 2003, dated 2008).

Tested on: TNF-α release induced by LPS in human peripheral blood mononuclear cells
Assay: Test 2: Inhibition of TNF-α release induced by LPS in human peripheral blood mononuclear cells
Format: cell-based
Conditions: test product at 0.1 μM, LPS 400 ng/mL, 19 h, TNF-α in supernatant by ELISA; for inhibition at 0.1 µM: Homo sapiens, PBMC
Protocol: Test 2: Inhibition of TNF-α Release Induced by LPS in Human Peripheral Blood Mononuclear Cells
To obtain the mononuclear cells: heparinized venous blood, obtained from healthy volunteers, is diluted with an equal volume of saline phosphate buffer without calcium or magnesium. Aliquots of 30 mL of the mixture are transferred to 50 mL centrifuge tubes containing 15 mL of Ficoll-Hypaque (1.077 g/mL). The tubes are centrifuged at 1200×g for 20 min at room temperature without braking. Approximately two-thirds of the band of platelets lying above the mononuclear cells is removed with a pipette. The mononuclear cells are carefully transferred to a 50 mL tube, washed twice with saline phosphate buffer, centrifuged at 300×g for 10 min at room temperature and resuspended in RPMI supplemented with 1% inactivated fetal bovine serum at a cell density of 2×10^6 cells/mL.
Inhibition of TNF-α release: 100 μL of mononuclear cells (2×10^6 cells/mL) are incubated on 96-well plates with 50 μL of the test product (final concentration, 0.001-10 μM) and 50 μL LPS (E. coli 055B5, Sigma) at a final concentration of 400 ng/mL for 19 h at 37° C. in an atmosphere with CO2 at 5%. The amount of TNF-α released in the supernatant is quantified using a commercial ELISA kit (Biosource International).

Row | Compound | inhibition at 0.1 µM [%] | % Inhibition at 0.1 μM [%]
1 | Cc1n[nH]c2nc(-c3ccc(F)cc3)c(-c3ccncc3)c(-c3ccc(F)cc3)c12 [Example 4, 4,6-Bis(4-fluorophenyl)-3-methyl-5-(4-pyridyl)-1H-pyrazolo[3,4-b]pyridine] | 68.4 | 
2 | OCCNCCn1cc2c(-c3ccccc3)c(-c3ccncc3)c(-c3ccccc3)nc2n1 [Example 232, 2-[2-(4,6-Diphenyl-5-(4-pyridyl)pyrazolo[3,4-b]pyridin-2-yl)ethylamino]ethanol] | 67.9 | 
3 | NCc1n[nH]c2nc(-c3ccc(F)cc3)c(-c3ccncc3)c(-c3ccc(F)cc3)c12 [Example 68, 3-Aminomethyl-4,6-bis(4-fluorophenyl)-5-(4-pyridyl)-1H-pyrazolo[3,4-b]pyridine] | 50 | 
4 | CN(C)C(=O)Cn1cc2c(-c3ccc(F)cc3)c(-c3ccncc3)c(-c3ccc(F)cc3)nc2n1 [Example 80, 2-[4,6-Bis(4-fluorophenyl)-5-(4-pyridyl)pyrazolo[3,4-b]pyridin-2-yl]-N,N-dimethylacetamide] | 69.3 | 
5 | CCn1cc2c(-c3ccc(F)cc3)c(-c3ccncc3)c(-c3ccc(F)cc3)nc2n1 [Example 6, 2-Ethyl-4,6-bis(4-fluorophenyl)-5-(4-pyridyl)pyrazolo[3,4-b]pyridine] | 81.4 | 
6 | Cn1cc2cc(-c3ccnc(NCC4CC4)n3)c(-c3ccc(F)cc3)nc2n1 [Example 210, N-Cyclopropylmethyl-[4-[6-(4-fluorophenyl)-2-methylpyrazolo[3,4-b]pyridin-5-yl]pyrimidin-2-yl]amine] | 57.3 | 
7 | Cc1c2c(-c3ccc(F)cc3)c(-c3ccncc3)c(-c3ccc(F)cc3)nc2nn1C1CCNCC1 [Example 41, 4,6-Bis(4-fluorophenl)-3-methyl-2-(4-piperidyl)-5-(4-pyridyl)pyrazolo[3,4-b]pyridine] |  | 90.6
8 | CCNc1nccc(-c2cc3cn[nH]c3nc2-c2cccc(C(F)(F)F)c2)n1 [Example 289, N-Ethyl-[4-[6-(3-trifluoromethyl-phenyl)-1H-pyrazolo[3,4-b]pyridin-5-yl]pyrimidin-2-yl]amine] | 51.3 | 
9 | Fc1ccc(-c2nc3nn(C4CCNCC4)cc3cc2-c2ccncc2)cc1 [Example 121, 6-(4-Fluorophenyl)-2-(4-piperidyl)-5-(4-pyridyl)pyrazolo[3,4-b]pyridine] | 52.1 | 
10 | OCCn1cc2c(-c3ccccc3)c(-c3ccncc3)c(-c3ccccc3)nc2n1 [Example 196, 2-[4,6-Diphenyl-5-(4-pyridyl)pyrazolo-[3,4-b]pyridin-2-yl]ethanol] | 70.2 | 
11 | FC(F)(F)c1cccc(-c2nc3[nH]ncc3cc2-c2ccnc(NCC3CC3)n2)c1 [Example 208, N-Cyclopropylmethyl-[4-[6-[3-(trifluoromethyl)phenyl]-1H-pyrazolo[3,4-b]pyridin-5-yl]pyrimidin-2-yl]amine] | 67.7 | 
12 | CC(=O)N1CCN(CCn2cc3c(-c4ccc(F)cc4)c(-c4ccncc4)c(-c4ccc(F)cc4)nc3n2)CC1 [Example 136, 1-[4-[2-[4,6-Bis(4-fluorophenyl)-5-(4-pyridyl)pyrazolo[3,4-b]pyridin-2-yl]ethyl]piperazin-1-yl]ethanone] | 67 | 
13 | COCCOCCn1cc2c(-c3ccc(F)cc3)c(-c3ccncc3)c(-c3ccc(F)cc3)nc2n1 [Example 82, 4,6-Bis(4-fluorophenyl)-2-[2-(2-methoxyethoxy)ethyl]-5-(4-pyridyl)pyrazolo[3,4-b]pyridine] | 59.9 | 
14 | OC1CCN(CCn2cc3c(-c4ccc(F)cc4)c(-c4ccncc4)c(-c4ccc(F)cc4)nc3n2)CC1 [Example 106, 1-[2-[4,6-Bis(4-fluorophenyl)-5-(4-pyridyl)pyrazolo[3,4-b]pyridin-2-yl]ethyl]piperidin-4-ol] | 69.3 | 
15 | OCCCn1cc2cc(-c3ccnc(NCC4CC4)n3)c(-c3ccc(F)cc3)nc2n1 [Example 212, 3-[5-[2-[(Cyclopropylmethyl)-amino]pyrimidin-4-yl]-6-(4-fluorophenyl)pyrazolo[3,4-b]pyridin-2-yl]propan-1-ol] | 67.5 | 
16 | CC(=O)NCCCn1cc2c(-c3ccc(F)cc3)c(-c3ccncc3)c(-c3ccc(F)cc3)nc2n1 [Example 240, N-[3-[4,6-Bis(4-fluorophenyl)-5-(4-pyridyl)pyrazolo[3,4-b]pyridin-2-yl]propyl]acetamide] | 58.4 | 
17 | Cn1cc2c(-c3ccco3)c(-c3ccncc3)c(-c3ccc(F)cc3)nc2n1 [Example 183, 6-(4-Fluorophenyl)-4-(2-furyl)-2-methyl-5-(4-pyridyl)pyrazolo[3,4-b]pyridine] | 66.7 | 

Row | Compound | inhibition at 0.1 µM [%] | % Inhibition at 0.1 μM [%]
18 | c1ccc(-c2nc3[nH]ncc3cc2-c2ccnc(NCC3CC3)n2)cc1 [Example 282, N-Cyclopropylmethyl-4-[6-[phenyl-1H-pyrazolo[3,4-b]pyridin-5-yl]pyrimidin-2-yl]amine] |  | 65.2
19 | CNCCCn1cc2c(-c3ccc(F)cc3)c(-c3ccncc3)c(-c3ccc(F)cc3)nc2n1 [Example 78, N-Methyl-[3-[4,6-bis(4-fluorophenyl)-5-(4-pyridyl)pyrazolo[3,4-b]pyridin-2-yl]propyl]amine] | 73.3 | 
20 | Fc1ccc(-c2nc3[nH]ncc3c(-c3ccc(F)cc3)c2-c2ccncc2)cc1 [Example 1, 4,6-Bis(4-fluorophenyl)-5-(4-pyridyl)-1H-pyrazolo[3,4-b]pyridine] | 57.5 | 
21 | Fc1ccc(-c2nc3[nH]ncc3c(-c3cc[nH]n3)c2-c2ccncc2)cc1 [Example 217, 6-(4-Fluorophenyl)-4-(1H-pyrazol-3-yl)-5-(4-pyridyl)-1H-pyrazolo[3,4-b]pyridine] | 53.8 | 
22 | OCCCn1cc2c(-c3ccccc3)c(-c3ccncc3)c(-c3ccccc3)nc2n1 [Example 137, 3-[4,6-Diphenyl-5-(4-pyridyl)pyrazolo[3,4-b]pyridin-2-yl]propan-1-ol] | 61.4 | 
23 | Cc1n[nH]c2nc(-c3ccc(F)cc3)c(-c3ccnc(N[C@@H](C)c4ccccc4)n3)cc12 [Example 279, (1S)-N-(1-Phenylethyl)-[4-[6-(4-fluorophenyl)-3-methyl-1H-pyrazolo[3,4-b]pyridin-5-yl]pyrimidin-2-yl]amine] | 100 | 
24 | OCCCn1cc2c(-c3ccc(F)cc3)c(-c3ccnc(NCC4CC4)n3)c(-c3ccc(F)cc3)nc2n1 [Example 213, 3-[5-[2-[(Cyclopropylmethyl)amino]-pyrimidin-4-yl]-4,6-bis(4-fluorophenyl)pyrazolo[3,4-b]pyridin-2-yl]propan-1-ol] | 68.1 | 
25 | Fc1ccc(-c2nc3nn(Cc4cccnc4)cc3c(-c3ccc(F)cc3)c2-c2ccncc2)cc1 [Example 102, 4,6-Bis(4-fluorophenyl)-5-(4pyridyl)-2-(3-pyridylmethyl)pyrazolo[3,4-b]pyridine] | 67.9 | 
26 | Fc1ccc(-c2nc3c(cnn3CC3CCNCC3)c(-c3ccc(F)cc3)c2-c2ccncc2)cc1 [Example 39, 4,6-Bis(4-fluorophenyl)-1-(4-piperidylmethyl)-5-(4-pyridyl)pyrazolo[3,4-b]pyridine] | 51.1 | 
27 | 6-(4-Fluorophenyl)-4-methyl-5-(2-methylsulfanylpyrimidin-4-yl)-1H-pyrazolo[3,4-b]pyridine [Example 237] |  | 53.4
28 | Fc1ccc(-c2nc3nn(C4CCNCC4)cc3c(-c3ccc(F)cc3)c2-c2ccncc2)cc1 [Example 36, 4,6-Bis(4-fluorophenyl)-2-(4-piperidyl)-5-(4-pyridyl)pyrazolo[3,4-b]pyridine] | 92 | 
29 | C[C@H](Nc1nccc(-c2cc3cn(CCCO)nc3nc2-c2cccc(C(F)(F)F)c2)n1)c1ccccc1 [Example 209, (1S)-3-[5-[2-(1-Phenylethylamino)-pyrimidin-4-yl]-6-(3-trifluoromethylphenyl)pyrazolo[3,4-b]pyridin-2-yl]propan-1-ol] | 84.2 | 
30 | Cn1cc2c(-c3ccc(Br)s3)c(-c3ccncc3)c(-c3ccc(F)cc3)nc2n1 [Example 188, 4-(5-Bromothien-2-yl)-6-(4-fluoro-phenyl)-2-methyl-5-(4-pyridyl)-1H-pyrazolo[3,4-b]pyridine] |  | 73.2
31 | Fc1ccc(-c2nc3nn(CCN4CCOCC4)cc3c(-c3ccc(F)cc3)c2-c2ccncc2)cc1 [Example 30, 4,6-Bis(4-fluorophenyl)-2-[2-(morpholin-4-yl)ethyl]-5-(4-pyridyl)pyrazolo[3,4-b]pyridine] | 83.6 | 
32 | Cc1ccc(-c2c(-c3ccncc3)c(-c3ccc(F)cc3)nc3nn(CCCO)cc23)o1 [Example 272, 3-[6-(4-Fluorophenyl)-4-(5-methylfuran-2-yl)-5-(4-pyridyl)-pyrazolo[3,4-b]pyridin-2-yl]propan-1-ol] | 65.6 | 
33 | Oc1ccc(-c2c(-c3ccncc3)c(-c3ccc(F)cc3)nc3[nH]ncc23)cc1 [Example 72, 4-[6-(4-Fluorophenyl)-5-(4-pyridyl)-1H-pyrazolo[3,4-b]pyridin-4-yl]phenol] | 52.7 | 
34 | O=C(CNCCO)NCCn1cc2c(-c3ccc(F)cc3)c(-c3ccncc3)c(-c3ccc(F)cc3)nc2n1 [Example 250, N-[2-[4,6-Bis(4-fluorophenyl)-5-(4-pyridyl)pyrazolo[3,4-b]pyridin-2-yl]ethyl]-2-(2-hydroxyethylamino)acetamide] | 67 | 
